#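 48-hour exposure; five concentrations; linearly interpolated endpoints. GI50 = concentration required for 50% inhibition of growth. TGI marks complete inhibition of growth.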
# Columns and labels:
# Test in all cases: NCI anticancer screen, dose series, 48 h
# PC-3 prostate = test system: PC-3 prostate
# SF-295 CNS = test system: SF-295 CNS
# SF-539 CNS = test system: SF-539 CNS
# HS 578T breast = test system: HS 578T breast
# SK-MEL-5 melanoma = test system: SK-MEL-5 melanoma
# SR leukemia = test system: SR leukemia
# NCI/ADR-RES ovarian = test system: NCI/ADR-RES ovarian
# COLO 205 colon = test system: COLO 205 colon
# A498 renal = test system: A498 renal
# SNB-19 CNS = test system: SNB-19 CNS
# NCI-H23 lung = test system: NCI-H23 lung
# SN12C renal = test system: SN12C renal
# UO-31 renal = test system: UO-31 renal
# SF-268 CNS = test system: SF-268 CNS
# MCF7 breast = test system: MCF7 breast
# UACC-257 melanoma = test system: UACC-257 melanoma
# CAKI-1 renal = test system: CAKI-1 renal
# NCI-H522 lung = test system: NCI-H522 lung
# ACHN renal = test system: ACHN renal
# LOX IMVI melanoma = test system: LOX IMVI melanoma
# HL-60(TB) leukemia = test system: HL-60(TB) leukemia
# EKVX NSCLC = test system: EKVX NSCLC
# NCI-H460 lung = test system: NCI-H460 lung
# CCRF-CEM leukemia = test system: CCRF-CEM leukemia
# MDA-MB-435 = test system: MDA-MB-435
# TK-10 renal = test system: TK-10 renal
# HOP-62 NSCLC = test system: HOP-62 NSCLC
# OVCAR-3 ovarian = test system: OVCAR-3 ovarian
# M14 melanoma = test system: M14 melanoma
# MDA-MB-231 breast = test system: MDA-MB-231 breast
# OVCAR-4 ovarian = test system: OVCAR-4 ovarian
# OVCAR-8 ovarian = test system: OVCAR-8 ovarian
# SW-620 colon = test system: SW-620 colon
# BT-549 breast = test system: BT-549 breast
# IGROV1 ovarian = test system: IGROV1 ovarian
# HCT-15 colon = test system: HCT-15 colon
# HCT-116 colon = test system: HCT-116 colon
# SK-MEL-2 melanoma = test system: SK-MEL-2 melanoma
# RPMI-8226 leukemia = test system: RPMI-8226 leukemia
# T-47D breast = test system: T-47D breast
# U251 CNS = test system: U251 CNS
# K-562 leukemia = test system: K-562 leukemia
# HOP-92 NSCLC = test system: HOP-92 NSCLC
# DU-145 prostate = test system: DU-145 prostate
# HT29 colon = test system: HT29 colon
# SK-OV-3 ovarian = test system: SK-OV-3 ovarian
# RXF 393 renal = test system: RXF 393 renal
# SNB-75 CNS = test system: SNB-75 CNS
# MALME-3M melanoma = test system: MALME-3M melanoma
# UACC-62 melanoma = test system: UACC-62 melanoma
# HCC-2998 colon = test system: HCC-2998 colon
# KM12 colon = test system: KM12 colon
# NCI-H226 lung = test system: NCI-H226 lung
# MOLT-4 leukemia = test system: MOLT-4 leukemia
# OVCAR-5 ovarian = test system: OVCAR-5 ovarian
# A549 NSCLC = test system: A549 NSCLC
# 786-0 renal = test system: 786-0 renal
# SK-MEL-28 melanoma = test system: SK-MEL-28 melanoma
compound,measurement,setting,value
CCOC(=O)c1sc(NCC(=O)Nc2cccc([N+](=O)[O-])c2)c(C(=O)OCC)c1C,GI50,PC-3 prostate,229 nM
same,TGI,PC-3 prostate,598 nM
same,GI50,SF-295 CNS,543 nM
same,TGI,SF-295 CNS,3770 nM
same,GI50,SF-539 CNS,300 nM
same,TGI,SF-539 CNS,880 nM
same,GI50,HS 578T breast,270 nM
same,TGI,HS 578T breast,1030 nM
same,GI50,SK-MEL-5 melanoma,346 nM
same,TGI,SK-MEL-5 melanoma,1230 nM
same,GI50,SR leukemia,354 nM
same,GI50,NCI/ADR-RES ovarian,319 nM
same,TGI,NCI/ADR-RES ovarian,1580 nM
same,GI50,COLO 205 colon,287 nM
same,TGI,COLO 205 colon,846 nM
same,GI50,A498 renal,309 nM
same,TGI,A498 renal,1160 nM
same,GI50,SNB-19 CNS,496 nM
same,TGI,SNB-19 CNS,4740 nM
same,GI50,NCI-H23 lung,241 nM
same,TGI,NCI-H23 lung,665 nM
same,GI50,SN12C renal,285 nM
same,TGI,SN12C renal,930 nM
same,GI50,UO-31 renal,202 nM
same,TGI,UO-31 renal,522 nM
same,GI50,SF-268 CNS,961 nM
same,TGI,SF-268 CNS,3740 nM
same,GI50,MCF7 breast,274 nM
same,TGI,MCF7 breast,1030 nM
same,GI50,UACC-257 melanoma,1060 nM
same,TGI,UACC-257 melanoma,5240 nM
same,GI50,CAKI-1 renal,267 nM
same,TGI,CAKI-1 renal,810 nM
same,GI50,NCI-H522 lung,251 nM
same,TGI,NCI-H522 lung,757 nM
same,GI50,ACHN renal,289 nM
same,TGI,ACHN renal,797 nM
same,GI50,LOX IMVI melanoma,172 nM
same,TGI,LOX IMVI melanoma,358 nM
same,GI50,HL-60(TB) leukemia,464 nM
same,GI50,EKVX NSCLC,1650 nM
same,TGI,EKVX NSCLC,4530 nM
same,GI50,NCI-H460 lung,313 nM
same,TGI,NCI-H460 lung,963 nM
same,GI50,CCRF-CEM leukemia,288 nM
same,GI50,MDA-MB-435,486 nM
same,TGI,MDA-MB-435,1760 nM
same,GI50,TK-10 renal,263 nM
same,TGI,TK-10 renal,1270 nM
same,GI50,HOP-62 NSCLC,1020 nM
same,TGI,HOP-62 NSCLC,4130 nM
same,GI50,OVCAR-3 ovarian,376 nM
same,TGI,OVCAR-3 ovarian,1750 nM
same,GI50,M14 melanoma,329 nM
same,TGI,M14 melanoma,1300 nM
same,GI50,MDA-MB-231 breast,1230 nM
same,TGI,MDA-MB-231 breast,3850 nM
same,GI50,OVCAR-4 ovarian,897 nM
same,TGI,OVCAR-4 ovarian,5180 nM
same,GI50,OVCAR-8 ovarian,375 nM
same,GI50,SW-620 colon,325 nM
same,TGI,SW-620 colon,1900 nM
same,GI50,BT-549 breast,258 nM
same,TGI,BT-549 breast,769 nM
same,GI50,IGROV1 ovarian,238 nM
same,TGI,IGROV1 ovarian,693 nM
same,GI50,HCT-15 colon,286 nM
same,TGI,HCT-15 colon,1840 nM
same,GI50,HCT-116 colon,303 nM
same,TGI,HCT-116 colon,1360 nM
same,GI50,SK-MEL-2 melanoma,1770 nM
same,TGI,SK-MEL-2 melanoma,4790 nM
same,GI50,RPMI-8226 leukemia,366 nM
same,TGI,RPMI-8226 leukemia,1750 nM
same,GI50,T-47D breast,1270 nM
same,TGI,T-47D breast,3880 nM
same,GI50,U251 CNS,274 nM
same,TGI,U251 CNS,1080 nM
same,GI50,K-562 leukemia,333 nM
same,TGI,K-562 leukemia,> 36700 nM
same,GI50,HOP-92 NSCLC,221 nM
same,TGI,HOP-92 NSCLC,873 nM
same,GI50,DU-145 prostate,760 nM
same,TGI,DU-145 prostate,6320 nM
same,GI50,HT29 colon,272 nM
same,TGI,HT29 colon,821 nM
same,GI50,SK-OV-3 ovarian,307 nM
same,TGI,SK-OV-3 ovarian,838 nM
same,GI50,RXF 393 renal,175 nM
same,TGI,RXF 393 renal,348 nM
same,GI50,SNB-75 CNS,790 nM
same,TGI,SNB-75 CNS,3440 nM
same,GI50,MALME-3M melanoma,231 nM
same,TGI,MALME-3M melanoma,598 nM
same,GI50,UACC-62 melanoma,173 nM
same,TGI,UACC-62 melanoma,381 nM
same,GI50,HCC-2998 colon,1400 nM
same,TGI,HCC-2998 colon,3470 nM
same,GI50,KM12 colon,539 nM
same,TGI,KM12 colon,3970 nM
same,GI50,NCI-H226 lung,230 nM
same,TGI,NCI-H226 lung,602 nM
same,GI50,MOLT-4 leukemia,342 nM
same,TGI,MOLT-4 leukemia,> 33200 nM
same,GI50,OVCAR-5 ovarian,283 nM
same,TGI,OVCAR-5 ovarian,824 nM
same,GI50,A549 NSCLC,461 nM
same,TGI,A549 NSCLC,3060 nM
same,GI50,786-0 renal,254 nM
same,TGI,786-0 renal,907 nM
same,GI50,SK-MEL-28 melanoma,291 nM
same,TGI,SK-MEL-28 melanoma,883 nM

# Reference: PubChem BioAssay (NCI)
